Results published in patent US7767659B2, “Synthesis of naturally occurring ecteinascidins and related compounds” (Pharma Mar, S.A., priority 2002, dated 2010).

Experiments:
[1] = system: A-549; assay: cells; conditions: Homo sapiens, A549, 48 h; for GI50: read-out: A549 GI50; for CC50: read-out: A549 LC50; for IC (TGI): read-out: A549 TGI
Summary of the method: (§1)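 Colorimetric SRB read (490 nm) on triplicate wells after 48 h at 37 °C, 5% CO2. Dose range 10 to 10^−8 μg/ml; 5×10^3 cells/well pre-attached 18 h.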

[2] = system: LoVo; assay: cells; conditions: Homo sapiens, LoVo, 48 h; for GI50: read-out: LOVO GI50; for CC50: read-out: LOVO LC50; for IC (TGI): read-out: LOVO TGI
Summary of the method: as §1

[3] = system: HT-29; assay: cells; conditions: Homo sapiens, HT-29, 48 h; for GI50: read-out: HT29 GI50; for CC50: read-out: HT29 LC50; for IC (TGI): read-out: HT29 TGI
Summary of the method: as §1

[4] = system: SK-BR-3; assay: Inhibition of cells growth by colorimetric assay (SRB); conditions: Homo sapiens, SK-BR-3, 48 h; for GI50: read-out: SK-BR3 GI50; for CC50: read-out: SK-BR3 LC50; for IC (TGI): read-out: SK-BR3 TGI
Summary of the method: as §1

[5] = system: K-562; assay: as above; conditions: Homo sapiens, K562, 48 h; for GI50: read-out: K562 GI50; for CC50: read-out: K562 LC50; for IC (TGI): read-out: K562 TGI
Summary of the method: as §1

[6] = system: HeLa; assay: as above; conditions: Homo sapiens, HeLa, 48 h; for GI50: read-out: HELA GI50; for CC50: read-out: HELA LC50; for IC (TGI): read-out: HELA TGI
Summary of the method: as §1

[7] = system: SK-MEL-28; assay: as above; conditions: Homo sapiens, SK-MEL-28, 48 h; for GI50: read-out: MEL-28 GI50; for CC50: read-out: MEL-28 LC50; for IC (TGI): read-out: MEL-28 TGI
Summary of the method: as §1

[8] = system: LNCaP; assay: as above; conditions: Homo sapiens, LNCaP, 48 h; for GI50: read-out: LNCAP GI50; for CC50: read-out: LNCAP LC50; for IC (TGI): read-out: LNCAP TGI
Summary of the method: as §1

[9] = system: PANC-1; assay: as above; conditions: Homo sapiens, PANC-1, 48 h; for GI50: read-out: PANC-1 GI50; for CC50: read-out: PANC-1 LC50; for IC (TGI): read-out: PANC-1 TGI
Summary of the method: as §1

[10] = system: LoVo-Dox; assay: as above; conditions: Homo sapiens, 48 h; for GI50: read-out: LOVO-DOX GI50; for CC50: read-out: LOVO-DOX LC50; for IC (TGI): read-out: LOVO-DOX TGI
Summary of the method: as §1

[11] = system: HeLa-APL; assay: as above; conditions: Homo sapiens, 48 h; for GI50: read-out: HELA-APL GI50; for CC50: read-out: HELA-APL LC50; for IC (TGI): read-out: HELA-APL TGI
Summary of the method: as §1

[12] = system: IGROV-ET; assay: as above; conditions: Homo sapiens, 48 h; for GI50: read-out: IGROV-ET GI50; for CC50: read-out: IGROV-ET LC50; for IC (TGI): read-out: IGROV-ET TGI
Summary of the method: as §1

[13] = system: IGROV-1; assay: as above; conditions: Homo sapiens, IGROV-1, 48 h; for GI50: read-out: IGROV GI50; for CC50: read-out: IGROV LC50; for IC (TGI): read-out: IGROV TGI
Summary of the method: as §1

[14] = system: DU-145; assay: as above; conditions: Homo sapiens, DU-145, 48 h; for GI50: read-out: DU145 GI50; for CC50: read-out: DU145 LC50; for IC (TGI): read-out: DU145 TGI
Summary of the method: as §1

COc1ccc2[nH]c3c(c2c1)CCN[C@]31CS[C@@H]2c3c(OC(C)=O)c(C)c4c(c3[C@H](COC1=O)N1C2[C@@H]2N[C@@H](Cc3cc(C)c(OC)c(O)c32)[C@@H]1C#N)OCO4 (stereo partly drawn) [compound 60]
GI50 [1]: 3.6 nM
CC50 [1]: 76 nM
IC (TGI) [1]: 13.1 nM
GI50 [2]: 3.27 nM
CC50 [2]: 2900 nM
IC (TGI) [2]: 8.23 nM
GI50 [3]: 2.28 nM
CC50 [3]: 12800 nM
IC (TGI) [3]: 13.1 nM
GI50 [4]: 0.431 nM
CC50 [4]: 42.2 nM
IC (TGI) [4]: 1.22 nM
GI50 [5]: 0.809 nM
CC50 [5]: 8570 nM
IC (TGI) [5]: 13.2 nM
GI50 [6]: 1.03 nM
CC50 [6]: 12.8 nM
IC (TGI) [6]: 3.41 nM
GI50 [7]: 1.91 nM
CC50 [7]: 9.55 nM
IC (TGI) [7]: 4.27 nM
GI50 [8]: 0.415 nM
CC50 [8]: 5.03 nM
IC (TGI) [8]: 1.42 nM
GI50 [9]: 3.31 nM
CC50 [9]: 12800 nM
IC (TGI) [9]: 11.9 nM
GI50 [10]: 163 nM
CC50 [10]: 12800 nM
IC (TGI) [10]: 757 nM
GI50 [11]: 1.37 nM
CC50 [11]: 9.27 nM
IC (TGI) [11]: 3.58 nM
GI50 [12]: 20.9 nM
CC50 [12]: 2890 nM
IC (TGI) [12]: 53.1 nM
GI50 [13]: 1.38 nM
CC50 [13]: 11.8 nM
IC (TGI) [13]: 4.03 nM
GI50 [14]: 1.8 nM
CC50 [14]: 7130 nM
IC (TGI) [14]: 1360 nM

COc1c(C)cc2c(c1O)[C@H]1N[C@@H](C2)[C@H](C#N)N2C1[C@@H]1SC[C@]3(NCCc4c3[nH]c3ccc(O)cc43)C(=O)OC[C@H]2c2c3c(c(C)c(OC(C)=O)c21)OCO3 (stereo partly drawn) [compound 61]
GI50 [1]: 24.3 nM
CC50 [1]: 104 nM
IC (TGI) [1]: 50.1 nM
GI50 [2]: 17.1 nM
CC50 [2]: 8230 nM
IC (TGI) [2]: 70.9 nM
GI50 [3]: 6.58 nM
CC50 [3]: 13100 nM
IC (TGI) [3]: 1400 nM
GI50 [4]: 4.28 nM
CC50 [4]: 245 nM
IC (TGI) [4]: 9 nM
GI50 [5]: 2.56 nM
CC50 [5]: 642 nM
IC (TGI) [5]: 8.62 nM
GI50 [6]: 3.56 nM
CC50 [6]: 11.8 nM
IC (TGI) [6]: 6.49 nM
GI50 [7]: 6.19 nM
CC50 [7]: 60.7 nM
IC (TGI) [7]: 18.8 nM
GI50 [8]: 1.17 nM
CC50 [8]: 6.92 nM
IC (TGI) [8]: 2.94 nM
GI50 [9]: 4.69 nM
CC50 [9]: 13100 nM
IC (TGI) [9]: 15.4 nM
GI50 [10]: 495 nM
CC50 [10]: 13100 nM
IC (TGI) [10]: 1760 nM
GI50 [11]: 2.98 nM
CC50 [11]: 10.5 nM
IC (TGI) [11]: 5.6 nM
GI50 [12]: 225 nM
CC50 [12]: 4770 nM
IC (TGI) [12]: 712 nM
GI50 [13]: 4.82 nM
CC50 [13]: 525 nM
IC (TGI) [13]: 9.64 nM
GI50 [14]: 5.14 nM
CC50 [14]: 7970 nM
IC (TGI) [14]: 9.34 nM

COc1c(C)cc2c(c1O)[C@H]1N[C@@H](C2)[C@H](C#N)N2C1[C@@H]1SC[C@]3(NCCc4c3[nH]c3ccc(C)cc43)C(=O)OC[C@H]2c2c3c(c(C)c(OC(C)=O)c21)OCO3 (stereo partly drawn) [compound 62]
GI50 [1]: 4.56 nM
CC50 [1]: 334 nM
IC (TGI) [1]: 16.5 nM
GI50 [2]: 5.03 nM
CC50 [2]: 1540 nM
IC (TGI) [2]: 17.9 nM
GI50 [3]: 4.03 nM
CC50 [3]: 12500 nM
IC (TGI) [3]: 283 nM
GI50 [4]: 1.01 nM
CC50 [4]: 103 nM
IC (TGI) [4]: 4.74 nM
GI50 [5]: 1.94 nM
CC50 [5]: 6020 nM
IC (TGI) [5]: 11 nM
GI50 [6]: 2.37 nM
CC50 [6]: 11 nM
IC (TGI) [6]: 5.11 nM
GI50 [7]: 2.46 nM
CC50 [7]: 9.78 nM
IC (TGI) [7]: 4.92 nM
GI50 [8]: 3.01 nM
CC50 [8]: 8.4 nM
IC (TGI) [8]: 5.03 nM
GI50 [9]: 3.86 nM
CC50 [9]: 4750 nM
IC (TGI) [9]: 13.5 nM
GI50 [10]: 136 nM
CC50 [10]: 13100 nM
IC (TGI) [10]: 558 nM
GI50 [11]: 2.3 nM
CC50 [11]: 10.3 nM
IC (TGI) [11]: 4.88 nM
GI50 [12]: 26.6 nM
CC50 [12]: 2920 nM
IC (TGI) [12]: 69.5 nM
GI50 [13]: 2.59 nM
CC50 [13]: 3900 nM
IC (TGI) [13]: 6.55 nM
GI50 [14]: 3.3 nM
CC50 [14]: 3590 nM
IC (TGI) [14]: 10.4 nM
